Results published in patent US20180265515A1 (Genentech, Inc., priority 2015, published 2018).

Experiments:
[1] = molecular target: T1, isolated recombinant JAK1 kinase domain (Homo sapiens, UniProt P23458); test: JAK1 enzyme assay (Caliper LabChip, Ki); assay type: biochemical; settings: recombinant JAK1 kinase domain, 25 μM ATP
T1 construct: The activity of the isolated recombinant JAK1 and JAK2 kinase domain was measured
Procedure, shortened: (§1)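 Caliper LabChip read-out: fraction of FAM-labeled JAK3-derived peptide converted to phosphopeptide by isolated JAK1/JAK2 kinase domain. Reaction 30 min, 22° C; stopped with EDTA, 50 mM final. Ki via Morrison tight-binding model, Ki=Ki,app/(1+[ATP]/Km,app).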

[2] = molecular target: T2, isolated recombinant JAK2 kinase domain (Homo sapiens, UniProt O60674); test: JAK2 enzyme assay (Caliper LabChip, Ki); assay type: biochemical; settings: 25 μM ATP
T2 construct: The activity of the isolated recombinant JAK1 and JAK2 kinase domain was measured
Procedure, shortened: as §1

[3] = tested on: JAK1-dependent STAT6 phosphorylation downstream of IL-13 stimulation in BEAS-2B human bronchial epithelial cells; test: JAK1 pathway assay in BEAS-2B cells (IL-13 stimulated STAT6 phosphorylation, MSD); assay type: cell-based; settings: read-out: P-STAT6 BEAS2B + IL13 IC50
Procedure, shortened: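 BEAS-2B human bronchial epithelial cells, plated the day before in complete growth medium, were preincubated with compound for 1 hr at 37° C (0.2% DMSO final), then stimulated with IL-13 at its EC90 for 15 min. STAT6 phosphorylation in lysates was read by MSD; EC50 was taken as 50% inhibition versus DMSO control.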

T1 sequence (P23458 875-1153 limits assumed): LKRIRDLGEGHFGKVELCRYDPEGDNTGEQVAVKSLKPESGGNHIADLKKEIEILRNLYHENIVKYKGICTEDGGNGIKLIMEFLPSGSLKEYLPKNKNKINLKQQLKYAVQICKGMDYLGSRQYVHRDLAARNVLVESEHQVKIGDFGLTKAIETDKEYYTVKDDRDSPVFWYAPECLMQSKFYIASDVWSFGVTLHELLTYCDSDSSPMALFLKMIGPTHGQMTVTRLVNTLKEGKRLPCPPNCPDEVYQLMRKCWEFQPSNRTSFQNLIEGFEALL
T2 sequence (O60674 849-1124 limits assumed): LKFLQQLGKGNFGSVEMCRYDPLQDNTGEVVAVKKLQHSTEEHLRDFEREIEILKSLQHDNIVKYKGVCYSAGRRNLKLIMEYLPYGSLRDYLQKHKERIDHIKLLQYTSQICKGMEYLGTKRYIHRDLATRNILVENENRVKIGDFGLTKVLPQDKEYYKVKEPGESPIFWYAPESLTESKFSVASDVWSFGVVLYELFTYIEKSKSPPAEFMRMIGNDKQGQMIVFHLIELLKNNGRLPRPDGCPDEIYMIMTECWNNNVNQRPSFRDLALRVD

Row | Ki [1] [nM] | Ki [2] [nM] | SMILES | IC50 [3] [nM]
1 | 0.3 | 0.44 | COC(=O)N1CCN(CC2CCN(C(=O)Cn3cc(NC(=O)c4cnn5cccnc45)c(-c4cc(SC)ccc4OC(F)F)n3)CC2)CC1 [Example 83, methyl 4-[[1-[2-[3-[2-(difluoromethoxy)-5-methylsulfanyl-phenyl]-4-(pyrazolo[1,5-a]pyrimidine-3-carbonylamino)pyrazol-1-yl]acetyl]-4-piperidyl]methyl]piperazine-1-carboxylate] | 10
2 | 0.37 | 0.53 | CSc1ccc(OC(F)F)c(-c2nn(CC(=O)N3CCC(N4CCO[C@H](CO)C4)CC3)cc2NC(=O)c2cnn3cccnc23)c1 [Example 84, N-[3-[2-(difluoromethoxy)-5-methylsulfanyl-phenyl]-1-[2-[4-[(2S)-2-(hydroxymethyl)morpholin-4-yl]-1-piperidyl]-2-oxo-ethyl]pyrazol-4-yl]pyrazolo[1,5-a]pyrimidine-3-carboxamide] | 44
3 | 0.33 | 0.38 | CSc1ccc(OC(F)F)c(-c2nn(CC(=O)N3CCC(N4CCOCC4CO)CC3)cc2NC(=O)c2cnn3cccnc23)c1 (stereo not drawn) [Example 85, N-[3-[2-(difluoromethoxy)-5-methylsulfanyl-phenyl]-1-[2-[4-[3-(hydroxymethyl)morpholin-4-yl]-1-piperidyl]-2-oxo-ethyl]pyrazol-4-yl]pyrazolo[1,5-a]pyrimidine-3-carboxamide] | 110
4 | 0.31 | 0.42 | CSc1ccc(OC(F)F)c(-c2nn(CC(=O)N3CCC(N4CCO[C@@H](CO)C4)CC3)cc2NC(=O)c2cnn3cccnc23)c1 [Example 86, N-[3-[2-(difluoromethoxy)-5-methylsulfanyl-phenyl]-1-[2-[4-[(2R)-2-(hydroxymethyl)morpholin-4-yl]-1-piperidyl]-2-oxo-ethyl]pyrazol-4-yl]pyrazolo[1,5-a]pyrimidine-3-carboxamide] | 120
5 | 0.39 | 0.61 | CSc1ccc(OC(F)F)c(-c2nn(CC(=O)N3CCC(CN4CCN(CC(=O)N(C)C)C[C@H]4C)CC3)cc2NC(=O)c2cnn3cccnc23)c1 [Example 87, N-[3-[2-(difluoromethoxy)-5-methylsulfanyl-phenyl]-1-[2-[4-[[(2R)-4-[2-(dimethylamino)-2-oxo-ethyl]-2-methyl-piperazin-1-yl]methyl]-1-piperidyl]-2-oxo-ethyl]pyrazol-4-yl]pyrazolo[1,5-a]pyrimidine-3-carboxamide] | 35
6 | 0.32 | 0.49 | CSc1ccc(OC(F)F)c(-c2nn(CC(=O)N3CCC(N4CCN(CC(=O)N5CCOCC5)CC4)CC3)cc2NC(=O)c2cnn3cccnc23)c1 [Example 88, N-[3-[2-(difluoromethoxy)-5-methylsulfanyl-phenyl]-1-[2-[4-[4-(2-morpholino-2-oxo-ethyl)piperazin-1-yl]-1-piperidyl]-2-oxo-ethyl]pyrazol-4-yl]pyrazolo[1,5-a]pyrimidine-3-carboxamide] | 470
7 | 0.51 | 0.78 | CSc1ccc(OC(F)F)c(-c2nn(CC(=O)N3CCN(C4CCN(CC(=O)N(C)C)CC4)CC3)cc2NC(=O)c2cnn3cccnc23)c1 [Example 89, N-[3-[2-(difluoromethoxy)-5-methylsulfanyl-phenyl]-1-[2-[4-[1-[2-(dimethylamino)-2-oxo-ethyl]-4-piperidyl]piperazin-1-yl]-2-oxo-ethyl]pyrazol-4-yl]pyrazolo[1,5-a]pyrimidine-3-carboxamide] | 200
8 | 0.32 | 0.14 | CSc1ccc(OC(F)F)c(-c2nn(Cc3cn(C4CCN(C5COC5)CC4)nn3)cc2NC(=O)c2cnn3cccnc23)c1 [Example 90, N-[3-[2-(difluoromethoxy)-5-methylsulfanyl-phenyl]-1-[[1-[1-(oxetan-3-yl)-4-piperidyl]triazol-4-yl]methyl]pyrazol-4-yl]pyrazolo[1,5-a]pyrimidine-3-carboxamide] | 22
9 | 0.13 | 0.071 | CSc1ccc(OC(F)F)c(-c2nn(C)cc2NC(=O)c2cnn3cccnc23)c1 [Example 91, N-[3-[2-(difluoromethoxy)-5-methylsulfanyl-phenyl]-1-methyl-pyrazol-4-yl]pyrazolo[1,5-a]pyrimidine-3-carboxamide] | 3.9
10 | 0.61 | 0.77 | CSc1ccc(OC(F)F)c(-c2nn(CC(=O)N3CCC(N(CCN4CCOCC4)C4COC4)CC3)cc2NC(=O)c2cnn3cccnc23)c1 [Example 92, N-[3-[2-(difluoromethoxy)-5-methylsulfanyl-phenyl]-1-[2-[4-[2-morpholinoethyl(oxetan-3-yl)amino]-1-piperidyl]-2-oxo-ethyl]pyrazol-4-yl]pyrazolo[1,5-a]pyrimidine-3-carboxamide] | 1000
11 | 0.44 | 0.71 | CSc1ccc(OC(F)F)c(-c2nn(CC(=O)N3CCN(CC4CCN(CC(=O)N5CCOCC5)CC4)CC3)cc2NC(=O)c2cnn3cccnc23)c1 [Example 93, N-[3-[2-(difluoromethoxy)-5-methylsulfanyl-phenyl]-1-[2-[4-[[1-(2-morpholino-2-oxo-ethyl)-4-piperidyl]methyl]piperazin-1-yl]-2-oxo-ethyl]pyrazol-4-yl]pyrazolo[1,5-a]pyrimidine-3-carboxamide] | 26
12 | 0.46 | 0.63 | CSc1ccc(OC(F)F)c(-c2nn(CC(=O)N3CCC(CN4CCN(CC(=O)N(C)C)C[C@@H]4C)CC3)cc2NC(=O)c2cnn3cccnc23)c1 [Example 94, N-[3-[2-(difluoromethoxy)-5-methylsulfanyl-phenyl]-1-[2-[4-[[(2S)-4-[2-(dimethylamino)-2-oxo-ethyl]-2-methyl-piperazin-1-yl]methyl]-1-piperidyl]-2-oxo-ethyl]pyrazol-4-yl]pyrazolo[1,5-a]pyrimidine-3-carboxamide] | 62
13 | 0.37 | 0.68 | CSc1ccc(OC(F)F)c(-c2nn(CC(=O)N3CCC(CN4CCNCC4)CC3)cc2NC(=O)c2cnn3cccnc23)c1 [Example 95, N-[3-[2-(difluoromethoxy)-5-methylsulfanyl-phenyl]-1-[2-oxo-2-[4-(piperazin-1-ylmethyl)-1-piperidyl]ethyl]pyrazol-4-yl]pyrazolo[1,5-a]pyrimidine-3-carboxamide] | 150
14 | 0.3 | 0.2 | CSc1ccc(OC(F)F)c(-c2nn(Cc3cn(C4CCN(C5CCOC5)CC4)nn3)cc2NC(=O)c2cnn3cccnc23)c1 (stereo not drawn) [Example 96, N-[3-[2-(difluoromethoxy)-5-methylsulfanyl-phenyl]-1-[[1-(1-tetrahydrofuran-3-yl-4-piperidyl)triazol-4-yl]methyl]pyrazol-4-yl]pyrazolo[1,5-a]pyrimidine-3-carboxamide] | 14
15 | 0.38 | 0.62 | CSc1ccc(OC(F)F)c(-c2nn(CC(=O)N3CCC(CN4CCN(CC(=O)N(C)C)[C@H](C)C4)CC3)cc2NC(=O)c2cnn3cccnc23)c1 [Example 97, N-[3-[2-(difluoromethoxy)-5-methylsulfanyl-phenyl]-1-[2-[4-[[(3R)-4-[2-(dimethylamino)-2-oxo-ethyl]-3-methyl-piperazin-1-yl]methyl]-1-piperidyl]-2-oxo-ethyl]pyrazol-4-yl]pyrazolo[1,5-a]pyrimidine-3-carboxamide] | 30
16 | 0.64 | 1.2 | CSc1ccc(OC(F)F)c(-c2nn(CC(=O)N3CCC(CN4C[C@@H](C)N(CC(=O)N(C)C)C[C@@H]4C)CC3)cc2NC(=O)c2cnn3cccnc23)c1 [Example 98, N-[3-[2-(difluoromethoxy)-5-methylsulfanyl-phenyl]-1-[2-[4-[[(2S,5R)-4-[2-(dimethylamino)-2-oxo-ethyl]-2,5-dimethyl-piperazin-1-yl]methyl]-1-piperidyl]-2-oxo-ethyl]pyrazol-4-yl]pyrazolo[1,5-a]pyrimidine-3-carboxamide] | 37
17 | 0.38 | 0.56 | CSc1ccc(OC(F)F)c(-c2nn(CC(=O)N3CCN([C@H]4CC[C@@H](C#N)CC4)CC3)cc2NC(=O)c2cnn3cccnc23)c1 [Example 99, N-[1-[2-[4-(4-cyanocyclohexyl)piperazin-1-yl]-2-oxo-ethyl]-3-[2-(difluoromethoxy)-5-methylsulfanyl-phenyl]pyrazol-4-yl]pyrazolo[1,5-a]pyrimidine-3-carboxamide] | 9.5
18 | 0.41 | 0.6 | CSc1ccc(OC(F)F)c(-c2nn(CC(=O)N3CCN([C@H]4CC[C@H](C#N)CC4)CC3)cc2NC(=O)c2cnn3cccnc23)c1 [Example 100, N-[1-[2-[4-(4-cyanocyclohexyl)piperazin-1-yl]-2-oxo-ethyl]-3-[2-(difluoromethoxy)-5-methylsulfanyl-phenyl]pyrazol-4-yl]pyrazolo[1,5-a]pyrimidine-3-carboxamide] | 9.4
19 | 0.2 | 0.093 | CC(C)Sc1ccc(OC(F)F)c(-c2n[nH]cc2NC(=O)c2cnn3cccnc23)c1 [Example 101, N-[3-[2-(difluoromethoxy)-5-(propan-2-ylsulfanyl)phenyl]-1H-pyrazol-4-yl]pyrazolo[1,5-a]pyrimidine-3-carboxamide] | 3.7
